Laboratory results as given in patent publication US8952128B2, “Somatostatin-dopamine chimeric analogs” (priority 2012, dated 2015).
Numbered stars: 1 amine (or outer) side, 2 acyl side, 3 side chain; on linkers, the order of the positions; unused ones are H or OH. Bridge positions count the residues as written; N and C are the ends. Square brackets hold non-standard residues; d marks the D form. Peptide text beside a SMILES is read from it. * marks the point of attachment. X1 = CN1C[C@H](CSCCN(CCSC[C@@H]2C[C@@H]3c4cccc5[nH]cc(c45)C[C@H]3N(C)C2)[C@H](CCCCN[*:2])C(=O)[*:1])C[C@@H]2c3cccc4[nH]cc(c34)C[C@H]21; X2 = CN1C[C@H](CSCC(=O)*)C[C@@H]2c3cccc4[nH]cc(c34)C[C@H]21; Phe(4-F) = N[C@@H](Cc1ccc(F)cc1)C(=O)O

Molecular target: hSSTR2 (Homo sapiens (Human), UniProt P30874)
Sequence (P30874 whole entry): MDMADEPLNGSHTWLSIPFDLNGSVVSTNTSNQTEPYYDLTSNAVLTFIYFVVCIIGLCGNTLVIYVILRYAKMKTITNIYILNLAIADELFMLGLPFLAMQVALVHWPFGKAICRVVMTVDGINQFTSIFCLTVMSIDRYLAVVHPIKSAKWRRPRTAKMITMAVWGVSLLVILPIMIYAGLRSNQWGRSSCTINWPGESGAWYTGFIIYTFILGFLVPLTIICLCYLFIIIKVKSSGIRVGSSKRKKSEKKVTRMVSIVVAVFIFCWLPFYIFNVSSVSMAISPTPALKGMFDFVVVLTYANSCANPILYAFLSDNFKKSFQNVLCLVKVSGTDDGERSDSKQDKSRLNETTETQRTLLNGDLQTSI
Assay: Intracellular calcium mobilization assay (FLIPR Calcium 4), hSSTR2;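 also: agonist activity read as intracellular calcium rise in cells expressing human SSTR2, loaded with a calcium-sensitive dye for 60 min at 37 °C, measured by FLIPR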
Type: cell-based
Settings: for Emax: read-out: hSSTR2 % Emax ± SEM
Experimental: The ability of select compounds according to the present invention to activate hSSTR2 and hDRD2 was determined by the intracellular calcium mobilization assay using FLIPR Calcium 4 assay kit (Molecular Devices).
Cells expressing hSSTR2 or hDRD2 were plated in 384-well microplates in tissue culture media and incubated for 16-24 hours at 37° C. in a humidified atmosphere with 5% CO2. Medium was replaced by loading buffer containing Hank's buffered saline, 20 mM HEPES, 2.5 mM probenecid and Calcium 4 dye, and the plates were incubated at 37° C. for 60 minutes.

Compound	Emax [%]	other results
C[C@@H](O)[C@@H]1NC(=O)[C@H](CCCCN)NC(=O)[C@@H](Cc2c[nH]c3ccccc23)NC(=O)[C@H](Cc2ccncc2)NC(=O)[C@H](Cc2ccccc2)NC(=O)[C@H](CCCNC(=N)N)NC(=O)[C@H](NC[C@H](Cc2ccc(O)cc2)NC(=O)CS(=O)(=O)C[C@@H]2C[C@@H]3c4cccc5[nH]cc(c45)C[C@H]3N(C)C2)CCCCNC(=O)[C@H](Cc2ccccc2)NC1=O [Compound 21, Dop1(SO2)-Tyr-psi(CH2NH)-cyclo(DLys-Arg-Phe-4Pal-DTrp-Lys-Thr-Phe)]	100 ± 1.8	–
Dop1-cyclo(DLys-Arg-Phe-Phe-DTrp-Lys-Thr-Phe) [Compound 44]	–	hSSTR2 % Emax ± SEM (maximal effect in percentage of the maximal effect of SRIF-14): 97.1 ± 5.9%
C[C@@H](O)[C@@H]1NC(=O)[C@H](CCCCN)NC(=O)[C@@H](Cc2c[nH]c3ccccc23)NC(=O)[C@H](Cc2ccccc2)NC(=O)[C@H](Cc2ccccc2)NC(=O)[C@H](CCCNC(=N)N)NC(=O)[C@H](NCC[S+]([O-])C[C@@H]2C[C@@H]3c4cccc5[nH]cc(c45)C[C@H]3N(C)C2)CCCCNC(=O)[C@H](Cc2ccc(F)cc2)NC1=O (stereo partly drawn) [Compound 14, Dop1(SO)-psi(CH2NH)-cyclo(DLys-Arg-Phe-Phe-DTrp-Lys-Thr-4FPhe)]	102 ± 2.2	–
C[C@@H](O)[C@@H]1NC(=O)[C@H](CCCCN)NC(=O)[C@@H](Cc2c[nH]c3ccccc23)NC(=O)[C@H](Cc2ccccc2)NC(=O)[C@H](Cc2ccccc2)NC(=O)[C@H](CCCNC(=N)N)NC(=O)[C@H](NC[C@H](Cc2ccc(O)cc2)NC(=O)CS(=O)(=O)C[C@@H]2C[C@@H]3c4cccc5[nH]cc(c45)C[C@H]3N(C)C2)CCCCNC(=O)[C@H](Cc2ccc(F)cc2)NC1=O [Compound 19, Dop1(SO2)-Tyr-psi(CH2NH)-cyclo(DLys-Arg-Phe-Phe-DTrp-Lys-Thr-4FPhe)]	99.5 ± 1.8	–
C[C@@H](O)[C@@H]1NC(=O)[C@H](CCCCN)NC(=O)[C@@H](Cc2c[nH]c3ccccc23)NC(=O)[C@H](Cc2ccccc2)NC(=O)[C@H](Cc2ccccc2)NC(=O)[C@H](CCCNC(=N)N)NC(=O)[C@H](NCCCS(=O)(=O)C[C@@H]2C[C@@H]3c4cccc5[nH]cc(c45)C[C@H]3N(C)C2)CCCCNC(=O)[C@H](Cc2ccc(F)cc2)NC1=O [Compound 48, (D-6-methyl-8β-ergolinylmethyl)-sulfonylpropyl-cyclo(DLys-Arg-Phe-Phe-DTrp-Lys-Thr-4FPhe)]	95.5 ± 11.9	–
CC(=O)N(CCCN(C(C)=O)[C@@H]1CCCCNC(=O)[C@H](Cc2ccc(F)cc2)NC(=O)[C@H]([C@@H](C)O)NC(=O)[C@H](CCCCN)NC(=O)[C@@H](Cc2c[nH]c3ccccc23)NC(=O)[C@H](Cc2ccccc2)NC(=O)[C@H](Cc2ccccc2)NC(=O)[C@H](CCCNC(=N)N)NC1=O)C[C@@H]1C[C@@H]2c3cccc4[nH]cc(c34)C[C@H]2N(C)C1 [Compound 28, 3-[N-acetyl-N-(D-6-methyl-8β-ergolinylmethyl)]-aminopropionyl-psi(CH2NAc)-cyclo(DLys-Arg-Phe-Phe-DTrp-Lys-Thr-4FPhe)]	98.7 ± 2	–
CC(=O)N(CCCN[C@@H]1CCCCNC(=O)[C@H](Cc2ccc(F)cc2)NC(=O)[C@H]([C@@H](C)O)NC(=O)[C@H](CCCCN)NC(=O)[C@@H](Cc2c[nH]c3ccccc23)NC(=O)[C@H](Cc2ccccc2)NC(=O)[C@H](Cc2ccccc2)NC(=O)[C@H](CCCNC(=N)N)NC1=O)C[C@@H]1C[C@@H]2c3cccc4[nH]cc(c34)C[C@H]2N(C)C1 [Compound 29A, 3-[N-acetyl-(D-6-methyl-8β-ergolinylmethyl)]-aminopropionyl-psi(CH2NH)-cyclo(DLys-Arg-Phe-Phe-DTrp-Lys-Thr-4FPhe)]	100 ± 23.2	–
C[C@@H](O)[C@@H]1NC(=O)[C@H](CCCCN)NC(=O)[C@@H](Cc2c[nH]c3ccccc23)NC(=O)[C@H](Cc2ccccc2)NC(=O)[C@H](Cc2ccccc2)NC(=O)[C@H](CCCNC(=N)N)NC(=O)[C@H](NCCSC[C@@H]2C[C@@H]3c4cccc5[nH]cc(c45)C[C@H]3N(C)C2)CCCCNC(=O)[C@H](Cc2cc(F)cc(F)c2)NC1=O [Compound 6B, Dop1-psi(CH2NH)-cyclo(DLys-Arg-Phe-Phe-DTrp-Lys-Thr-3,5FPhe)]	95.2 ± 6.8	–
CC(=O)N(CCCNC[C@@H]1C[C@@H]2c3cccc4[nH]cc(c34)C[C@H]2N(C)C1)[C@@H]1CCCCNC(=O)[C@H](Cc2ccc(F)cc2)NC(=O)[C@H]([C@@H](C)O)NC(=O)[C@H](CCCCN)NC(=O)[C@@H](Cc2c[nH]c3ccccc23)NC(=O)[C@H](Cc2ccccc2)NC(=O)[C@H](Cc2ccccc2)NC(=O)[C@H](CCCNC(=N)N)NC1=O [Compound 22, 3-[N-(D-6-methyl-8β-ergolinylmethyl)]-aminopropionyl-psi(CH2NAc)-cyclo(DLys-Arg-Phe-Phe-DTrp-Lys-Thr-4FPhe)]	99.1 ± 12.6	–
C[C@@H](O)[C@@H]1NC(=O)[C@H](CCCCN)NC(=O)[C@@H](Cc2c[nH]c3ccccc23)NC(=O)[C@H](Cc2ccncc2)NC(=O)[C@H](Cc2ccccc2)NC(=O)[C@H](CCCNC(=N)N)NC(=O)[C@H](NCCSC[C@@H]2C[C@@H]3c4cccc5[nH]cc(c45)C[C@H]3N(C)C2)CCCCNC(=O)[C@H](Cc2ccccc2)NC1=O [Compound 23, Dop1-psi(CH2NH)-cyclo(DLys-Arg-Phe-4Pal-DTrp-Lys-Thr-Phe)]	95.4 ± 3.3	improvement in EC50 over Reference Compound A (Student's t-test, one-tailed, p <0.05): statistically significant improvement
C[C@@H](O)[C@@H]1NC(=O)[C@H](CCCCN)NC(=O)[C@@H](Cc2c[nH]c3ccccc23)NC(=O)[C@H](Cc2ccccc2)NC(=O)[C@H](Cc2ccccc2)NC(=O)[C@H](CCCNC(=N)N)NC(=O)[C@H](NC(=O)CSC[C@@H]2C[C@@H]3c4cccc5[nH]cc(c45)C[C@H]3N(C)C2)CCCCNC(=O)[C@H](Cc2ccc(F)cc2)NC1=O [Compound 34, Dop1-cyclo(DLys-Arg-Phe-Phe-DTrp-Lys-Thr-4FPhe)] (X2-[dK]RFF[dW]KT[Phe(4-F)]; lactam 1-C)	95.1 ± 7.1	–
C[C@@H](O)[C@@H]1NC(=O)[C@H](CCCCN)NC(=O)[C@@H](Cc2c[nH]c3ccccc23)NC(=O)[C@H](Cc2ccncc2)NC(=O)[C@H](Cc2ccccc2)NC(=O)[C@H](CCCNC(=N)N)NC(=O)[C@H](NC[C@H](CCCCNC(=O)C[S+]([O-])C[C@@H]2C[C@@H]3c4cccc5[nH]cc(c45)C[C@H]3N(C)C2)NC(=O)C[S+]([O-])C[C@@H]2C[C@@H]3c4cccc5[nH]cc(c45)C[C@H]3N(C)C2)CCCCNC(=O)[C@H](Cc2ccc(O)cc2)NC1=O (stereo partly drawn) [Compound 16, Dop1(SO)-Lys[Dop1(SO)]-psi(CH2NH)-cyclo(DLys-Arg-Phe-4Pal-DTrp-Lys-Thr-Tyr)]	103 ± 2.3	–
C[C@@H](O)[C@@H]1NC(=O)[C@H](CCCCN)NC(=O)[C@@H](Cc2c[nH]c3ccccc23)NC(=O)[C@H](Cc2ccccc2)NC(=O)[C@H](Cc2ccccc2)NC(=O)[C@H](CCCNC(=N)N)NC(=O)[C@H](NC[C@H](Cc2ccc(O)cc2)NC(=O)CSC[C@@H]2C[C@@H]3c4cccc5[nH]cc(c45)C[C@H]3N(C)C2)CCCCNC(=O)[C@H](Cc2ccc(O)cc2)NC1=O [Compound 33, Dop1-Tyr-psi(CH2NH)-cyclo(DLys-Arg-Phe-Phe-DTrp-Lys-Thr-Tyr)]	95.7 ± 5.1	improvement in EC50 and/or % Emax over Reference Compound B (calcium mobilization): statistically significant improvement
C[C@@H](O)[C@@H]1NC(=O)[C@H](CCCCN)NC(=O)[C@@H](Cc2c[nH]c3ccccc23)NC(=O)[C@H](Cc2ccccc2)NC(=O)[C@H](Cc2ccccc2)NC(=O)[C@H](CCCNC(=N)N)NC(=O)[C@H](NCCSC[C@@H]2C[C@@H]3c4cccc5[nH]cc(c45)C[C@H]3N(C)C2)CCCCNC(=O)[C@H](Cc2ccc(F)c(F)c2)NC1=O [Compound 6A, Dop1-psi(CH2NH)-cyclo(DLys-Arg-Phe-Phe-DTrp-Lys-Thr-3,4FPhe)]	99.5 ± 2.6	–
C[C@@H](O)[C@@H]1NC(=O)[C@H](CCCCN)NC(=O)[C@@H](Cc2c[nH]c3ccccc23)NC(=O)[C@H](Cc2ccccc2)NC(=O)[C@H](Cc2ccccc2)NC(=O)[C@H](CCCNC(=N)N)NC(=O)[C@H](NCCSC[C@@H]2C[C@@H]3c4cccc5[nH]cc(c45)C[C@H]3N(C)C2)CCCCNC(=O)[C@H](Cc2ccccc2)NC1=O [Compound 26, Dop1-psi(CH2NH)-cyclo(DLys-Arg-Phe-Phe-DTrp-Lys-Thr-Phe)]	90.2 ± 12.6	–
C[C@@H](O)[C@@H]1NC(=O)[C@H](CCCCN)NC(=O)[C@@H](Cc2c[nH]c3ccccc23)NC(=O)[C@H](Cc2ccncc2)NC(=O)[C@H](Cc2ccccc2)NC(=O)[C@H](CCCNC(=N)N)NC(=O)[C@H](NC[C@H](Cc2ccc(O)cc2)NC(=O)C[S+]([O-])C[C@@H]2C[C@@H]3c4cccc5[nH]cc(c45)C[C@H]3N(C)C2)CCCCNC(=O)[C@H](Cc2ccccc2)NC1=O (stereo partly drawn) [Compound 15, Dop1(SO)-Tyr-psi(CH2NH)-cyclo(DLys-Arg-Phe-4Pal-DTrp-Lys-Thr-Phe)]	99.9 ± 1.9	–
C[C@@H](O)[C@@H]1NC(=O)[C@H](CCCCN)NC(=O)[C@@H](Cc2c[nH]c3ccccc23)NC(=O)[C@H](Cc2ccccc2)NC(=O)[C@H](Cc2ccccc2)NC(=O)[C@H](CCCNC(=N)N)NC(=O)[C@H](NC[C@H](Cc2ccc(O)cc2)NC(=O)C[S+]([O-])C[C@@H]2C[C@@H]3c4cccc5[nH]cc(c45)C[C@H]3N(C)C2)CCCCNC(=O)[C@H](Cc2ccc(F)cc2)NC1=O (stereo partly drawn) [Compound 13, Dop1(SO)-Tyr-psi(CH2NH)-cyclo(DLys-Arg-Phe-Phe-DTrp-Lys-Thr-4FPhe)]	100 ± 0.7	–
C[C@@H](O)[C@@H]1NC(=O)[C@H](CCCCN)NC(=O)[C@@H](Cc2c[nH]c3ccccc23)NC(=O)[C@H](Cc2ccccc2)NC(=O)[C@H](Cc2ccccc2)NC(=O)[C@H](CCCNC(=N)N)NC(=O)[C@H](N(CCSC[C@@H]2C[C@@H]3c4cccc5[nH]cc(c45)C[C@H]3N(C)C2)CCSC[C@@H]2C[C@@H]3c4cccc5[nH]cc(c45)C[C@H]3N(C)C2)CCCCNC(=O)[C@H](Cc2ccc(F)cc2)NC1=O [Compound 39, bis[Dop1-psi(CH2N)]-cyclo(DLys-Arg-Phe-Phe-DTrp-Lys-Thr-4FPhe)] (RFF[dW]KT[Phe(4-F)]; linker N-C via X1)	87.1 ± 4.7	–
